The record followed here is patent publication US20230322805A1, “NOVEL PYRIMIDODIAZEPINE DERIVATIVES OR USES THEREOF” (SPARK BIOPHARMA, INC., priority 2020, published 2023).

SMILES strings stand for the structures.

For one assay, the system named is tau P301L. Nature of the assay: Level of aggregation-prone mutant protein after treatment. Type of assay: cell-based. As to conditions: SB1617 treatment. The text has this:
(§1) Plasmids pRK5-EGFP-Tau (#46904) and pRK-EGFP-Tau P301 L (#46908) were purchased from Addgene. Plasmids pCMV-SOD1-EGFP and pCMV-SOD1 G93A-EGFP were provided by Seoul National University College of Medicine. Plasmids were transfected in HEK293T cells using Lipofectamine and Opti-MEM (Gibco) based on the manufacturer's instructions. Short interfering RNA duplex (siRNA duplex, BIONEER) for PDIA3 and DNAJC3 was used for PDIA3 and DNAJC3 knockdown experiments. siRNA oligonucleotides were transfected in HEK293 cells stably expressing BiFC-tau using Lipofectamine RNAiMAX (ThermoFisher Scientific) and Opti-MEM (Gibco) based on the manufacturer's instructions.
(§2) 5-6. From the results of Test Examples 5-1 to 5-5, it was hypothesized that if SB1617, a pyrimidiazepine derivative from this invention, regulates protein homeostasis, it will be able to effectively control the level of other proteins that tend to be folded and accumulated incorrectly under ER stress conditions. To confirm this, changes in the level of other aggregation-oriented proteins according to SB1617 treatment were confirmed.
(§3) Tau P301 L is found in FTD patients with Parkinson's disease and is known to accelerate tau aggregation and accumulation in the mouse brain. Htt-Q74 refers to a polyglutamine dilated mutation that causes Huntington's disease. The SOD1 (G93A) mutation level is one of the clinical characteristics of ALS patients.

The next assay has as its system SOD1 (G93A). The description is as above. Type of assay: cell-based. As to conditions: SB1617 treatment.
Text: as §1, §2, §3

Another assay deals with T1, PDIA3 (Homo sapiens, UniProt P30101).
T1 sequence (P30101 25-505): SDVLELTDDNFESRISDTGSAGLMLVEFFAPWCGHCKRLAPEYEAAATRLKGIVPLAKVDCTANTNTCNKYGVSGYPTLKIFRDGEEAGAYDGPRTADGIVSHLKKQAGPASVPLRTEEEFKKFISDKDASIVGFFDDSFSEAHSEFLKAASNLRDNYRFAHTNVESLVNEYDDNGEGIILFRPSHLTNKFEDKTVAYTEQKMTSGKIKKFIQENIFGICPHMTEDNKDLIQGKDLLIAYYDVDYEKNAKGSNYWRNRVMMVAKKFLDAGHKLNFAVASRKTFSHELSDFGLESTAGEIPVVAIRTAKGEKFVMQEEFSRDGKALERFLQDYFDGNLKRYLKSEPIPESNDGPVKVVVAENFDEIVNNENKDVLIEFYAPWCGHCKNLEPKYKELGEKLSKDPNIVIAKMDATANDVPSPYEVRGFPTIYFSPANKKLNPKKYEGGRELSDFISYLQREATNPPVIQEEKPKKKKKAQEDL
In words: TS-FITGE thermal stability shift. Type of assay: binding. The arrangement: endogenous in cells; host or cells: HEK293 BiFC-tau cells (TS-FITGE, CETSA, PEG-maleimide assay). As to conditions: 10 μM, 200 nM thapsigargin, 3 hours, HEK293 BiFC-tau cells. The method, then: HEK293 BiFC-tau cells were treated with dimethylsulfoxide (DMSO, 0.1%) and a compound according to the present invention (10 μM) in the presence of thapsigargin (200 nM) for 3 hours. The cell suspension was heated at the indicated temperature range for 3 minutes and then at 25° C. for 3 minutes. The heated cells were washed with PBS and resuspended in lysis buffer A (0.4% NP-40 in PBS supplemented with protease inhibitor cocktail). For cell lysis, cell suspensions were freeze-thawed in liquid nitrogen three times. The cell lysate was washed by centrifugation at 20000 g, 4° C. for 20 minutes. Protein concentration of the soluble fraction was quantified by Pierce BCA protein assay. After precipitating 50 μg of protein with cold acetone, it was centrifuged at […] and 4° C. for 7 minutes. The residual pellet was resuspended in 10 μl of conjugation buffer (30 mM Tris-HCl at pH 8.6, 30 mM thiourea, 7 M urea and 4% w/v CHAPS). 1 μl of 0.4 mM Cy2-N-hydroxysuccinimide(Cy2-NHS) (for DMSO-treated group), Cy3-NHS (for SB1607-treated group) or Cy5-NHS (for SB1617-treated group) was mixed with the protein and incubated at 4° C. for 45 minutes. […] Protein spot locations and fluorescence signals were analyzed with DeCyder 2D software ver. […]

For `CN(Cc1ccc(Cl)cc1)c1ncnc2c1[C@@H]1OC[C@H](CN2)N1S(=O)(=O)c1ccc([N+](=O)[O-])cc1` [Compound 117], the “mutation level of tau P301L” value in the assay on tau P301L was “downregulated”. In the assay with SOD1 (G93A), the “mutation level of SOD (G93A)” value is listed as “downregulated”. In addition, the “thermal stability of protein (TS-FITGE)” value on PDIA3 is given as “thermal stability of the protein was improved”.
